Results: patent US20030130280A1, “Treatment of acute myeloid leukemia with indolinone compounds” (SUGEN, Inc., priority 2001, published 2003)
“Also recorded” adds a separate entry of the source.

How the values were obtained:
FLT-3 = assay: Phase I single dose study, FLT-3 phosphorylation in whole blood; assay type: in vivo, human; conditions: AML patients, reached in 3 pts at each dose level >200 mg, WT and mutant FLT-3 patients
Description: Immunoprecipitation and Western Blot (IP/W) analysis: Cells were lysed in lysis buffer (20 mM Tris, pH 7.5; 137 mM NaCl; 10% glycerol; 1% NP-40; 0.1% SDS; 2 mM EDTA) containing protease and phosphatase inhibitors (50 mM sodium fluoride, 1 mM sodium orthovanadate, 2 mM Pefabloc, […], […], […], 4 mM leupeptin, and 4 mM pepstatin A). Equivalent amounts of protein were separated by SDS-PAGE, then transferred to nitrocellulose membranes. For analysis of FLT3 phosphorylation, equivalent amounts of protein from each sample were immunoprecipitated overnight at 4*C. with an agarose-conjugated anti-FLT3 antibody (Santa Cruz Biotechnology, Santa Cruz, Calif.). Immune complexes were washed (150 mM NaCl, 1.5 mM MgCl2, 50 mM HEPES, pH 7.5, 10% glycerol, 0.1% Triton X-100, and 1 mM EGTA) and following SDS-PAGE, proteins were transferred to nitrocellulose membranes. Membranes were probed with an anti-phosphotyrosine antibody (Upstate, Lake Placid, N.Y. or Transduction Laboratories, Lexington, Ky.) and then stripped with Restore Western Blot Stripping Buffer (Pierce, Rockford, Ill.). Membranes were reprobed with an anti-FLT3 antibody (Santa Cruz Biotechnology). Stat5 antibodies for immunprecipitation and Western blot analysis were from Upstate Biotechnology and Transduction labs respectively.

VEGF = assay: Plasma VEGF by ELISA; assay type: in vivo; conditions: plasma of NOD-SCID mice
Description: (§1) At experimental endpoints, mice were anesthetized, followed by terminal blood collection via intracardiac puncture. Bone marrow cell suspensions were prepared by flushing mouse femurs with cold, sterile PBS. For all studies, a paired Student's t test was used to assess differences between treated and control groups (P<0.05 was considered significant).
Plasma from the NOD-SCID mice described above was analyzed by ELISA for VEGF protein levels using a commercially available kit.

RS411 (wild type FLT-3) [1] = assay: Cell proliferation, RS411; assay type: cell-based
RS411 (wild type FLT-3) [2] = assay: Apoptosis by PARP cleavage and caspase 3 staining, wild type cells; assay type: cell-based; conditions: PARP cleavage, caspase 3 staining
Description: Apoptosis was measured by analysis of PARP cleavage and by caspase 3 staining.

[3] = Bone marrow model, survival; assay type: in vivo, NOD-SCID mice; conditions: orally once daily
Description: as §1, with “NOD-SCID mice were pretreated with cyclophosphamide (Neosar, Pharmacia, Kalamazoo, Mich.) by intraperitoneal injection of 150 mg/kg/day for 2 days ^(46), followed by 24 hours of rest prior to intravenous (i.v.) injection of 5×10^6 cells via the tail vein. At” for “At”

RS4; 11 = assay: VEGF production, RS4;11 cells; assay type: cell-based; conditions: for VEGF %: 0 uM = 100
OC1-AML5 cell line = assay: Cell viability (trypan blue) and proliferation (alamar blue) with FLT-3 ligand; assay type: cell-based; conditions: trypan blue and alamar blue assays
From the text: The first cell line used was the OC1-AML5 cell line known to express the FLT-3 tyrosine kinase. This cell line was maintained in conventional medium containing cytokines to maintain growth in liquid culture. This cell line provides a model to assess activation and inhibition of FLT-3 signaling by FLT-3 ligand and compounds which may inhibit FLT-3. The biological consequences of FLT-3 can be assessed with this cell line.
The OC1-AML5 cell line which express FLT-3-wild type was obtained (Pharmacia).

MV411 (ITD mutant FLT-3) = assay: Cell proliferation, MV411; assay type: cell-based
FLT-3-ITD = assay: FLT-3 phosphorylation in resected xenograft tumors; assay type: in vivo, athymic mice; conditions: 4 hour treatment
Description: Tumor cells, MV411 in the example shown were implanted subcutaneously in the hindflank of athymic mice. […] For measurement of efficacy, tumor growth was measured at various subsequent time points using vernier calipers. For analysis of phosphorylation, tumors were resected following dosing (4 hours here), pulverized in liquid nitrogen and homogenized in lysis buffer. FLT-3 and Stat5 phosphorylation were measured by immunoprecipitation and Western blot analysis.
Athymic mice were injected subcutaneously with MV411 and RS411 cells to cause tumor formation.

With `CCN(CC)CCNC(=O)c1c(C)[nH]c(/C=C2\C(=O)Nc3ccc(F)cc32)c1C` [Compound 1, 5-(5-Fluoro-2-oxo-1,2-dihydro-indol-3-ylidenemethyl)-2,4-dimethyl-1H-pyrrole-3-carboxylic acid(2-diethylamino-ethyl)-amide] the “inhibition of FLT-3 phosphorylation” value (FLT-3) was over 50%, the “VEGF in plasma (mean)” value (VEGF) was 49 pg/mL and the “expansion of RS411” value (RS411 (wild type FLT-3) [1]) was “inhibited expansion”. The apoptosis (RS411 (wild type FLT-3) [2]) was “causes apoptosis”, the “dose with highest efficacy on survival” value [3] was 20 mg/kg/day and the survival ([3]; range of doses) was “prolonged survival in a dose-dependent manner”. For the same compound, the VEGF mean sd (RS4; 11; CMPD 1 0.00 uM) was 32.82, the VEGF mean sd (RS4; 11; CMPD 1 0.01 uM) was 9.62 and the VEGF % (RS4; 11; CMPD 1 0.01 uM) was 31.0%. For the same compound, the VEGF mean sd (RS4; 11; CMPD 1 0.1 uM) was 1.24, the VEGF % (RS4; 11; CMPD 1 0.1 uM) was 4.0% and the VEGF mean sd (RS4; 11; CMPD 1 1 uM) was 2.3. The VEGF % (RS4; 11; CMPD 1 1 uM) was 7.4%, the VEGF mean sd (RS4; 11; CMPD 1 10 uM) was 2.94 and the VEGF % (RS4; 11; CMPD 1 10 uM) was 9.5%. The “inhibition of FLT-3 ligand increased cell numbers” value (OC1-AML5 cell line) was “some inhibition”, the “expansion of MV411” value (MV411 (ITD mutant FLT-3)) was “inhibited expansion” and the “activated FLT-3 in tumors” value (FLT-3-ITD) was “completely inhibited; also recorded: inhibits”.
